Measurements as given in patent US10828305B2 (SHANGHAI PHARMACEUTICALS HOLDING CO., LTD., priority 2016, dated 2020).

Columns and labels:
ErbB2 kinase = ErbB2 kinase (Homo sapiens, UniProt P04626); experiment: Enzymatic experiment on ErbB2 (HTRF kinEASE-TK); format: biochemical; details: ATP 4 μM; read-out: Kinase IC50 (nM) in vitro ErbB2
Outline: (§1)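 HTRF kinEASE-TK with biotinylated TK substrate in HEPES pH 7.0 buffer containing MnCl2, MgCl2 and DTT; ErbB2 at 0.06 ng/μl with 4 μM ATP, EGFR at 0.06 units/μl with 1.65 μM ATP, 30 min at room temperature after 5 min enzyme/substrate–compound preincubation. Ten-point 3-fold dilutions; Eu antibody/SA-XL665 detection, 665/620 ratio.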

EGFR kinase = EGFR kinase (Homo sapiens, UniProt P00533); experiment: Enzymatic experiment on EGFR (HTRF kinEASE-TK); format: biochemical; details: ATP 1.65 μM; read-out: Kinase IC50 (nM) in vitro EGFR
EGFR kinase, sequence (P00533 25-1210): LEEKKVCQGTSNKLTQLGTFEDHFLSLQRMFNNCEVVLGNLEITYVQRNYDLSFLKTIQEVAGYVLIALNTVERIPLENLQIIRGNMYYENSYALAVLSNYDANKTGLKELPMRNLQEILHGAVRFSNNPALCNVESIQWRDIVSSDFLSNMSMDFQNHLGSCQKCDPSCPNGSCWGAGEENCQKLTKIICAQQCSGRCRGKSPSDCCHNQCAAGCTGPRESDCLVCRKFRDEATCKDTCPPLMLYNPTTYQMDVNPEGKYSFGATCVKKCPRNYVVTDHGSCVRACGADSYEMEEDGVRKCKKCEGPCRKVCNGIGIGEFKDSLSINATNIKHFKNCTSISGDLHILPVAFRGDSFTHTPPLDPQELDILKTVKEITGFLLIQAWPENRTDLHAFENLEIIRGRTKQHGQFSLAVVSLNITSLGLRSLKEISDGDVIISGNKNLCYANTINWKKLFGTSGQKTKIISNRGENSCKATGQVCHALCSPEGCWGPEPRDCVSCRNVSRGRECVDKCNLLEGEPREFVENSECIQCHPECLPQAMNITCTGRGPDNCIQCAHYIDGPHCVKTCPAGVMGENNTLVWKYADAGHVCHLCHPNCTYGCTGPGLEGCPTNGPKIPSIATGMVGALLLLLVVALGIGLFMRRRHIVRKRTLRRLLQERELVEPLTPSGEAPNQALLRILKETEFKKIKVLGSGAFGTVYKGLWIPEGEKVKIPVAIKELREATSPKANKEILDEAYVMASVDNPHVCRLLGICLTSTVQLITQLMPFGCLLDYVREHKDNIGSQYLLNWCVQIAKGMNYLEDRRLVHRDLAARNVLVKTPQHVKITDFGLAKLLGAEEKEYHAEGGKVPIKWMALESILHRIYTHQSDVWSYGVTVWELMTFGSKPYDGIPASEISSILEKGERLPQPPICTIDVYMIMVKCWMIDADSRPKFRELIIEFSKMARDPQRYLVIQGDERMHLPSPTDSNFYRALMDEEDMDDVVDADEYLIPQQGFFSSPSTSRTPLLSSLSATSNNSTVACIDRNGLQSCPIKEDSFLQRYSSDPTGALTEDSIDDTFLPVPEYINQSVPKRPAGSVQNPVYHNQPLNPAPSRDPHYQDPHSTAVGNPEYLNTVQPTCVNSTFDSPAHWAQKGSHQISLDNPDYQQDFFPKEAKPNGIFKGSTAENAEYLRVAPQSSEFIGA
Outline: as §1

BT-474 = experiment: Proliferation inhibition assay in vitro, BT-474 (CellTiter-Glo); format: cell-based; details: Homo sapiens, 72 hours, read-out: IC50(nM) cell BT-474
Outline: (§2)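 Cells were seeded at 8.8×10^4 cells/mL for BT-474 or 6.6×10^4 cells/mL for N87 and grown overnight. Compound was added at 9 concentrations in duplicate for 72 h at 37 °C, 5% CO2. Viability was measured by CellTiter-Glo.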

N87 = experiment: Proliferation inhibition assay in vitro, N87 (CellTiter-Glo); format: cell-based; details: Homo sapiens; 72 hours; read-out: IC50(nM) cell N87
Outline: as §2

ErbB2 kinase, sequence (P04626 23-1255): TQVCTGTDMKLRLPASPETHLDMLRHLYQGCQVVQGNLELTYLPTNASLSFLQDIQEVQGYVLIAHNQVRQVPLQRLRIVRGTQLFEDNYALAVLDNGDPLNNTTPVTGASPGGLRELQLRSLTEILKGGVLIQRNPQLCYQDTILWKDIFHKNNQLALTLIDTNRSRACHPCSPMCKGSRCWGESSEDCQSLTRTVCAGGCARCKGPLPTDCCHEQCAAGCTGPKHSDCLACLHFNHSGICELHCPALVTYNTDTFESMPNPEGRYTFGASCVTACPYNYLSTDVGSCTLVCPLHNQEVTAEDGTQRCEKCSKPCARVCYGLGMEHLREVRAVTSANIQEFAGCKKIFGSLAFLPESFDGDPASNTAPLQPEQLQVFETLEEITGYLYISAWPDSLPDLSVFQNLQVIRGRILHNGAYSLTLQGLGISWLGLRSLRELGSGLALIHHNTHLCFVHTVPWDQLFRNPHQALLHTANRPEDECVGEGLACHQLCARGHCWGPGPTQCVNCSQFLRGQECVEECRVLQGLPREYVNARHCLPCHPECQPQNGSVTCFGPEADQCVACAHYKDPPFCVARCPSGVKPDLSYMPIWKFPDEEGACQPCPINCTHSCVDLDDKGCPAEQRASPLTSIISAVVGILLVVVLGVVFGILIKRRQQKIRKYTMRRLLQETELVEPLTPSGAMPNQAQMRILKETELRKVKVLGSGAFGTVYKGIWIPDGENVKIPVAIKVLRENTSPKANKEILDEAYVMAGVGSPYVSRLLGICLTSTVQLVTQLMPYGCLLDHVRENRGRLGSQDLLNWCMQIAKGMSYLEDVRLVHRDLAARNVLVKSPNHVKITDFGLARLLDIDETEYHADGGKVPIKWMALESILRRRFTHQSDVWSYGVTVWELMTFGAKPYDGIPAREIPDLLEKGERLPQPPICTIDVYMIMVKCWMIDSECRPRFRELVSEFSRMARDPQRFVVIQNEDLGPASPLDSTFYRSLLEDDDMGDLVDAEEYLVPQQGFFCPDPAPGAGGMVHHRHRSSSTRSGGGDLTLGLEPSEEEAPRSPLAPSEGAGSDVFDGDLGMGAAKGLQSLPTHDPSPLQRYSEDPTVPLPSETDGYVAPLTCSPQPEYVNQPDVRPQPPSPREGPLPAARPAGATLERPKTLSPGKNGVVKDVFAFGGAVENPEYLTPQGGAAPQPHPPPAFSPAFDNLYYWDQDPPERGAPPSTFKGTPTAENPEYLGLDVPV

Cc1cc(Nc2ncnc3ccc(NC4=NC(C)(C)CO4)cc23)ccc1Oc1cc2nncn2cn1 [Embodiment 4, N^4-(4-([1,2,4]triazolo[4,3-c]pyrimidin-7-yloxy)-3-methylphenyl)-N^6-(4,4-dimethyl-4,5-dihydrooxazol-2-yl)quinazoline-4,6-diamine]
IC50 (ErbB2 kinase): 2.4 nM | IC50 (EGFR kinase): 44.3 nM | IC50 (BT-474): 19.7 nM | IC50 (N87): 23 nM
